The target of assay [1] is T1, parathyroid cell calcium receptor (Bos taurus, UniProt P35384).
T1 sequence (P35384 21-1085 limits assumed): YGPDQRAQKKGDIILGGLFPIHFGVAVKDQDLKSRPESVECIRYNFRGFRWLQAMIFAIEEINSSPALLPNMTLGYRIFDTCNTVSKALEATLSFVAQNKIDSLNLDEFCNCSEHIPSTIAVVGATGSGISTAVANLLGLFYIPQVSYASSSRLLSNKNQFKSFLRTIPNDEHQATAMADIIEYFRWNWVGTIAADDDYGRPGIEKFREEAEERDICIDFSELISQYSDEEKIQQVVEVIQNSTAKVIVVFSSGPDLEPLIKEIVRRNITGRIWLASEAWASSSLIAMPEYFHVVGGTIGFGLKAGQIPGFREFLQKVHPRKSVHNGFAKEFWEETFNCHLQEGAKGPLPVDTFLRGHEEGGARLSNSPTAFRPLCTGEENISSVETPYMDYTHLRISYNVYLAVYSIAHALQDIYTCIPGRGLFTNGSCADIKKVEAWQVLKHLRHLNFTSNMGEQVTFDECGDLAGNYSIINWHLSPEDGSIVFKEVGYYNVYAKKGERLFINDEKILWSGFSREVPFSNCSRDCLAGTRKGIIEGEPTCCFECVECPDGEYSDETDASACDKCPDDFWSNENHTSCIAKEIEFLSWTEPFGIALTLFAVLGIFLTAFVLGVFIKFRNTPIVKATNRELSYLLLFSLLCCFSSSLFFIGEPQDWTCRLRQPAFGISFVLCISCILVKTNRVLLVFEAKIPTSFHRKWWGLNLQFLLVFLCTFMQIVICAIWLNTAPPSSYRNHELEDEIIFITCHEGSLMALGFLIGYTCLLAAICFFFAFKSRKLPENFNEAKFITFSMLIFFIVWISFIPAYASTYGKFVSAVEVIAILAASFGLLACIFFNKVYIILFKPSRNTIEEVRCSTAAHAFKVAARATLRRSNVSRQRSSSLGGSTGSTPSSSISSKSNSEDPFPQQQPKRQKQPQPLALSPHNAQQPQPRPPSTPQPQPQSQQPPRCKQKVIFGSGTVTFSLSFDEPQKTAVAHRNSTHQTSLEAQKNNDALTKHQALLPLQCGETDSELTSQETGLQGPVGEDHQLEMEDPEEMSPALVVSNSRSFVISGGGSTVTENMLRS
Nature of the assay: cell-based. The class given is cell-based.

Assay [2] concerns the target T2, human parathyroid cell calcium receptor (Homo sapiens, UniProt P41180).
T2 construct: cRNA injected in Xenopus oocytes
T2 sequence (P41180 20-1078 R990G/E1011Q): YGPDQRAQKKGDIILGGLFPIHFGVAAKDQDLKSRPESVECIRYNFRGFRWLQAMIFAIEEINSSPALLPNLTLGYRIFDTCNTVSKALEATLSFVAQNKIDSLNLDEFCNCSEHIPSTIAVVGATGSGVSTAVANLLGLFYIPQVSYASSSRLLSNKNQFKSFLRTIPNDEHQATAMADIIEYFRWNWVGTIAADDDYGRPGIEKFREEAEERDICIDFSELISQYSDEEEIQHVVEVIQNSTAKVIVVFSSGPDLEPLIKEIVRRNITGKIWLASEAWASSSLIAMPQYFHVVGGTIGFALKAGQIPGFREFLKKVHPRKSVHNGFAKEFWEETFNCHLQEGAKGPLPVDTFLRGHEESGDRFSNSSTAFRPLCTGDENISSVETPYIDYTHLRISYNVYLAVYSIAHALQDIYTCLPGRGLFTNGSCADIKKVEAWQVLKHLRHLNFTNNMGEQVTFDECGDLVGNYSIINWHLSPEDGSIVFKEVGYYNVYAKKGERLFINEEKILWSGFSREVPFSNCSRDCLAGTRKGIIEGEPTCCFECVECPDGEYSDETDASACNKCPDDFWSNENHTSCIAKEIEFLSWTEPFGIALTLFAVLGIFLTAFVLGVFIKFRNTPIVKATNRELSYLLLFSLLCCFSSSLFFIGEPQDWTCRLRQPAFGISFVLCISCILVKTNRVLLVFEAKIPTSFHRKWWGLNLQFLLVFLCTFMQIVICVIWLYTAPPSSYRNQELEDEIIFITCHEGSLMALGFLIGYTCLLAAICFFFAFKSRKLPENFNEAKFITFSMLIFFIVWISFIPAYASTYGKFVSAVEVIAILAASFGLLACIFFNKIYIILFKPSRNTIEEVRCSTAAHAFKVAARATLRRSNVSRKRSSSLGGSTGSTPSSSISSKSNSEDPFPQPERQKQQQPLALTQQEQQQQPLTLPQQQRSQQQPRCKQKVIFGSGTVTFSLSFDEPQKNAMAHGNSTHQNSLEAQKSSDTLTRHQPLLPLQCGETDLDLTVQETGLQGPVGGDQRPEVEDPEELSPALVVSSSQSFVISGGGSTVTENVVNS
The assay can be described thus: Cl^- current in Xenopus oocytes expressing cloned human parathyroid calcium receptor. The conditions noted are these: pHuPCaR 5.2 and 4.0. Type of assay: cell-based. As for the experimental part:
Representative cDNA inserts for both size classes were subcloned into the plasmid vector pBluescript SK. Linearization followed by in vitro transcription using T7 RNA polymerase produced cRNA transcripts. The cRNA transcripts were injected into Xenopus oocytes (150 ng/μl RNA; 50 nl/oocyte) for functional analysis. Following incubation periods of 2-4 days, the oocytes were assayed for the presence of functional calcium receptors. Both clone types gave rise to functional calcium receptors as assessed by the stimulation of calcium-activated chloride currents upon addition of appropriate calcium receptor agonists. […] Thus, both clones encode a functional, human parathyroid cell calcium receptor.
Xenopus oocytes were injected with pHuPCaR 5.2, the 5.2 Kb cDNA encoding a parathyroid cell calcium receptor derived from a human parathyroid cell adenoma. (See Example 27.) After two to three days, Cl^- currents were measured in the oocytes using a two-electrode voltage clamp.

Assay [3] concerns parathyroid cell calcium receptor. The assay can be described thus: Cl^- current in Xenopus oocytes injected with (bovine) parathyroid cell mRNA. The class given is cell-based. The following applies: 30 μM. As for the experimental part:
Following incubation, an oocyte was placed into a 100-μl plastic chamber and superfused with MBS at a flow rate of 0.5 ml/min using a peristaltic pump. Test molecules or inorganic polycations were added by rapidly moving the tubing into different buffers. Recording and current passing electrodes were constructed from thin-wall capillary tubing pulled to a resistance of 1-3 Mohms and filled with 3M KCl. […] Currents were recorded directly onto a strip chart recorder.

The nature of assay [4]: serum/plasma Ca^2+, PTH and calcitonin in rats, oral. Type of assay: in vivo. The following applies: rat, single oral dose, 3 hours. The text has this: Rats (male, Sprague-Dawley, 250-300 g) were fed standard rat chow and fasted overnight prior to the experiment. NPS R-467 was suspended in corn oil and administered as a single oral dose through a gavage needle. Three hours later a sample of blood was taken from the tail vein and assessed for ionized Ca^2+ levels.

Assay [5] is described as follows: serum/blood calcium, PTH, albumin and phosphate in rats, intraperitoneal. Type of assay: in vivo, rat. The conditions noted are these: 10 mg/kg i.p., 1 hour, normal diet. On the procedure: Compounds shown to activate the bovine parathyroid cell calcium receptor in vitro were tested for hypocalcemic activity in vivo. […] […] […] Serum total calcium, albumin and phosphate were measured by techniques well known in the art.

In assay [6] the test system is human parathyroid calcium receptor (HuPCaR 5.2). Nature of the assay: intracellular calcium in HEK293 cells transfected with HuPCaR 5.2. The class given is cell-based. The following applies: Ca^2+ 10 mM, Mg^2+ 20 mM. As for the experimental part: Cells obtained from the pool of hygromycin selected HEK293 cells transfected with Cep4B containing the HuPCaR 5.2 insert were plated on collagen coated Aklar squares which had been placed into individual wells of 12-well tissue culture plates. Two to six days later, medium was removed and the cells washed with balanced salt solution and 1 ml of buffer containing 1 μM fura2-AM, 1 mM CaCl2 and 0.1% BSA and […]. Measurements of fluorescence in response to calcium receptor agonists were performed at 37° C. in a spectrofluorimeter using excitation and emission wavelengths of 340 and 510 nm, respectively. For signal calibration, Fmax was determined after addition of ionomycin (4.0 μM) and the apparent Fmin was determined by addition of 0.3M EGTA, 2.5M Tris-HCl; pH 10.
Background: A change in cytosolic calcium serves as a functional read-out for many receptors and channels.

Assay [7] in a line: serum ionized Ca^2+ in parathyroidectomized rats. Type of assay: in vivo, rat. The following applies: 10 mg/kg i.p., 6 hours. The text has this: To determine the primary target tissue upon which NPS R-467 acts to cause a hypocalcemic response, the parathyroid glands in rats were surgically removed. Animals receiving a total parathyroidectomy become hypocalcemic and are largely dependent upon dietary calcium to maintain serum Ca^2+ homeostasis.

Each structure is given as a SMILES string. “Also recorded” adds a separate entry of the source.

On to `COc1cccc([C@@H](C)NCCCc2ccccc2)c1` [NPS R-467, (R)-(+)-N-(3-phenylpropyl)-α-methyl-3-methoxybenzylamine], for which, in assay [1], the “[Ca^2+]i response in presence of 0.5 mM extracellular Ca^2+” value is “rapid and transient increase in [Ca^2+ ]i”. For the same molecule, in assay [1] (30 μM NPS R-467), the “[Ca^2+]i response in Ca^2+-free buffer after 10 μM neomycin” value was “transient increase in [Ca^2+ ]i” and the “[Ca^2+]i response in Ca^2+-free buffer after 100 μM neomycin” value is “did not cause an increase in [Ca^2+ ]i”. Also, in assay [1] (no extracellular Ca^2+, NPS R-467 30 μM), the “[Ca^2+]i response in Ca^2+-free buffer” value was “abolished; also recorded: no increase in [Ca^2+ ]i”. Moreover, the “activation of oocyte-expressed human receptor” value in assay [2] was “activated the oocyte-expressed receptor at about the same concentrations”. In addition, in assay [3], the “Cl^- current in oocytes” value is listed as “rapid increase”. Also, in assay [4], the “reduction in serum ionized Ca^2+” value was “dose-dependent reduction in serum levels of ionized Ca^2+”. For the same molecule, in assay [5], the “decrease in serum ionized Ca^2+ from control level” value is reported as 22%. Also, the “increase in intracellular calcium” value in assay [6] is “Robust increases in intracellular calcium”. For the same molecule, the “change in serum ionized Ca^2+” value in assay [7] is listed as “did not cause any change”.
